Literature values as cited in publication PMC4284021 (The Journal of Pharmacy and Pharmacology, 2014).

How the values were obtained:
CETP = details: cited from earlier work
patients [1] = details: cited from earlier work
patients [2] = details: cited from earlier work; remark: listed apart in the source
[3] = system: CYP11B1 (steroid 11 β-hydroxylase) and CYP11B2 (aldosterone synthase); details: branched DNA analysis; cited from earlier work
patients [4] = details: cited from earlier work; remark: listed apart in the source

## COc1cc(F)c(C(C)C)cc1-c1ccc(C(F)(F)F)cc1CN1C(=O)O[C@H](c2cc(C(F)(F)F)cc(C(F)(F)F)c2)[C@@H]1C [anacetrapib]
CETP
  time of peak CETP inhibition after dosing: 4 h
Patients [1]; 12 weeks after cessation
  plasma concentrations after cessation of treatment: significant plasma concentrations
Patients [1]; through 76 weeks
  changes in blood pressure or electrolyte or aldosterone levels: no changes were noted

## CCOC(=O)N1c2ccc(C(F)(F)F)cc2[C@@H](N(Cc2cc(C(F)(F)F)cc(C(F)(F)F)c2)C(=O)OC)C[C@H]1CC [torcetrapib]
Patients [2]
  blood pressure and aldosterone levels: increases in blood pressure and aldosterone levels
  mortality and CV events: excess risk
[3]
  expression of genes regulating CYP11B1 and CYP11B2: induced expression

## CCC(CC)CC1(C(=O)Nc2ccccc2SC(=O)C(C)C)CCCCC1 [dalcetrapib]
Patients [4]
  mean systolic blood pressure higher than in the placebo group: approximately 0.6 mmHg
